Measurements as given in patent US7335501B1, “Phytases and methods for producing these phytases” (Adisseo France S.A.S., priority 2001, dated 2008).

Tested on: Penicillium sp. CBS 109899 phytase (wild type, SEQ ID NO: 3), in crude fungal extract
Assay: Michaelis-Menten constants of the phytase contained in the crude fungal extract (phosphate release from sodium phytate, method of Shimizu)
Type: biochemical
Conditions: substrate sodium phytate, 250 mM acetate buffer with 1 mM CaCl2, pH 5.5, 37° C.
Description: The measurement of phytase activity is based on the method of Shimizu (1992, Biosci. Biotech. Biochem. 56(8), 1266-1269). The principle of this method consists in measuring the amount of inorganic phosphate released during the enzymatic reaction of the phytase with its substrate (solution of sodium phytate prepared at 10 g/l in a 250 mM acetate buffer containing 1 mM CaCl2, pH 5.5). The amount of inorganic phosphate released is measured by reaction of this phosphate with a chromogenic reagent (1 volume of iron sulfate at 10.8% mixed extemporaneously with 4 volumes of ammonium molybdate at 0.012M H2SO4). This reaction leads, in highly acidic medium, to the formation of a colored phosphomolybdate complex (in the presence of Fe^2+), and the amount of complex formed is quantified by measuring the absorbance at 700 nm of the colored solution generated, on a spectrophotometer.
Three reactions are carried out in parallel in order to produce enzymatic kinetics at 10, 20 and 30 minutes at 37° C. […] The sample interference is determined by adding the 20% trichloroacetic acid and then the phytic acid to the crude extract, which may or may not be diluted. […] The intensity of the blue coloration is measured by spectrophotometry at 700 nm. […] The enzymatic activity is determined using the rate of appearance of the phosphate in the course of the enzymatic kinetics. […]

What does the source list for `O=P(O)(O)O[C@H]1[C@H](OP(=O)(O)O)[C@@H](OP(=O)(O)O)[C@H](OP(=O)(O)O)[C@@H](OP(=O)(O)O)[C@H]1OP(=O)(O)O` [sodium phytate]?
Vmapp (maximum reaction rate): 1.425 μmol of phosphate released per minute and per mg of sample; Km (substrate concentrations and incubation times modified, read-out: Kmapp): 550 µM
